Laboratory results reported in US12097193B2, “Methods for the administration of COMT inhibitors” (BIAL—PORTELA & CA, S.A., priority 2018, dated 2024).
Where two headings read alike, the source gives them in different places. Values belong to the compound of their own block, whether it stands above or below them.

Assays:
BCRP = biological target: T1, BCRP (Homo sapiens, UniProt Q9UNQ0); conditions: in vitro; cited from earlier work
T1 sequence (Q9UNQ0 1-655): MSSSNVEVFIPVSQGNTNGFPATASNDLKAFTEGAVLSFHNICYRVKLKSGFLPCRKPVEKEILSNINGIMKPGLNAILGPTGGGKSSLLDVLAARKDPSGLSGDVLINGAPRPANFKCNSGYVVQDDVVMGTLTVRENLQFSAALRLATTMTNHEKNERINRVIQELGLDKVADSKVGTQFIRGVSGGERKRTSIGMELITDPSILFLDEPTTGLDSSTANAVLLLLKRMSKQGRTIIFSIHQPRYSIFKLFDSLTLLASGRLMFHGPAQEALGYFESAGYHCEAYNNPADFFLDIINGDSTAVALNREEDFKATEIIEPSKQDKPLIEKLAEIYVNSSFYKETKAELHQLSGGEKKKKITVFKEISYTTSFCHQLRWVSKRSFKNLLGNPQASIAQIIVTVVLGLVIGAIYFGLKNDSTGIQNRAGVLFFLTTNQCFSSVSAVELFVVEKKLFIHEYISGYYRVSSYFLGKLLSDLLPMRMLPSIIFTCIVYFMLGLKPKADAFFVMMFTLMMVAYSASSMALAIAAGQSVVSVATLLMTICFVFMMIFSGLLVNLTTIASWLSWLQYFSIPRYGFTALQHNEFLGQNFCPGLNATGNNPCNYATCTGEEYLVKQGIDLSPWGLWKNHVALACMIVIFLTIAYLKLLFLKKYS

OATP1B3 = biological target: T2, OATP1B3 (Homo sapiens, UniProt Q9NPD5); conditions: in vitro; cited from earlier work
T2 sequence (Q9NPD5 1-702): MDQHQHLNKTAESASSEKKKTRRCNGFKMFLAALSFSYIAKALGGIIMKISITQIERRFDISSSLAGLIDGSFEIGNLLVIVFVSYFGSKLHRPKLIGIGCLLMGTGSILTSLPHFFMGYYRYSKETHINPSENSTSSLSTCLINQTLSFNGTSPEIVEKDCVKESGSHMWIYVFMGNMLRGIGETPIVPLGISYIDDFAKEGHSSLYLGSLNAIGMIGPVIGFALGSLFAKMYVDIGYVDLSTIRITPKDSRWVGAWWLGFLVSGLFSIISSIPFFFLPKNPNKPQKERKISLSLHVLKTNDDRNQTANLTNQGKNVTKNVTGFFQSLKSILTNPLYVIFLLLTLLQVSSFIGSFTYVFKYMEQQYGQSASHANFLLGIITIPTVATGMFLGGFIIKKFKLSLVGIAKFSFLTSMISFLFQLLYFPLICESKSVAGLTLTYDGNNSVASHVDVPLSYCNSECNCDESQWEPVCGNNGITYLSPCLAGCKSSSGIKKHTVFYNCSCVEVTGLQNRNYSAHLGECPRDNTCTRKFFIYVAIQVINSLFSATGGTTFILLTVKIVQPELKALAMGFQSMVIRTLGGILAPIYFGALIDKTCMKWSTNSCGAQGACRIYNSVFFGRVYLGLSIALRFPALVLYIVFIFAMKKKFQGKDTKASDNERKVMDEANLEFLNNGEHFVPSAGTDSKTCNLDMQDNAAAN

OATP1B1 = biological target: T3, OATP1B1 (Homo sapiens, UniProt Q9Y6L6); conditions: in vitro; cited from earlier work
T3 sequence (Q9Y6L6 1-691): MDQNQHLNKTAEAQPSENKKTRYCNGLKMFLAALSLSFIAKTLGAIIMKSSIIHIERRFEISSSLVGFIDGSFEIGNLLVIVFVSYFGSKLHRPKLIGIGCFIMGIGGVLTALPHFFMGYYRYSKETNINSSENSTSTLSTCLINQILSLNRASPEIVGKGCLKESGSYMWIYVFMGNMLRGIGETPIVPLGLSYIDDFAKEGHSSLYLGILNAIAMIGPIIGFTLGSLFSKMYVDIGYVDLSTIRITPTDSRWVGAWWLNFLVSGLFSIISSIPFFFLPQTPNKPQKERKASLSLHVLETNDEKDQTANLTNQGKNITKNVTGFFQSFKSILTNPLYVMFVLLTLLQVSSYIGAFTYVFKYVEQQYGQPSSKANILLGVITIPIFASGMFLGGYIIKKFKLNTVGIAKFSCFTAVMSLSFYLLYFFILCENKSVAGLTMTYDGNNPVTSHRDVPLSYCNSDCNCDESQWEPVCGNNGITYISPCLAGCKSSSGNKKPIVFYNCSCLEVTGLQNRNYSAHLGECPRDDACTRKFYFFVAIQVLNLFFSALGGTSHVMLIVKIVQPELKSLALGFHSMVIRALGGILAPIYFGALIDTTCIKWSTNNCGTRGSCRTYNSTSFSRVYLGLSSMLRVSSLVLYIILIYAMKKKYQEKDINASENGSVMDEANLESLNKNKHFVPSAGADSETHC

[1] = Phase 1 two-period crossover study of the effect of quinidine on the pharmacokinetics of opicapone (plasma PK); type: in vivo, human; conditions: for AUC(0-inf) / AUC(0-t) / Cmax / half-life: plasma, 50 mg
Excerpt: A Phase 1, Randomized, Open-Label, Two-Period Crossover Study to Assess the Effect of Quinidine on the Pharmacokinetics of Opicapone (OPC) in Healthy Subjects
This was a Phase 1, randomized, open-label, 2-period crossover drug interaction study of the effect of quinidine on the PK of OPC in healthy subjects. A total of 20 subjects (10 males and 10 females) were randomized to 1 of 2 treatment sequences (5 males and 5 females per sequence) as depicted in the table below. Randomization to treatment sequence were stratified by gender. Enrolled subjects received a single dose of each of the following treatments under fasted conditions: OPC 50 mg and quinidine 600 mg plus OPC 50 mg (OPC will be administered 1 hour after quinidine). There was be a 14-day washout between the doses in each treatment period.
Subjects fasted overnight for at least 10 hours before OPC dosing on Day 1 and continued to fast for an additional 4 hours after OPC dosing.
Blood samples for the assessment of plasma concentrations of OPC and its metabolites were collected within 30 minutes predose and approximately 0.5, 1, 1.5, 2, 3, 4, 6, 8, 10, 12, 24, 48, 72, 96, and 120 hours postdose. The PK parameters to be calculated included the following for OPC and its metabolites:
Blood samples for the assessment of plasma concentrations of OPC and its metabolites were collected within 30 minutes predose and approximately 0.5, 1, 1.5, 2, 3, 4, 6, 8, 10, 12, 24, 48, 72, 96, and 120 hours postdose.
The following plasma PK parameters were calculated only for OPC: • Apparent systemic clearance after oral administration (CL/F). • Apparent volume of distribution during the terminal phase after oral administration (Vz/F).
PK parameters for OPC and its metabolites were calculated using noncompartmental methods. […] Safety data will be summarized with descriptive statistics.
Pharmacokinetic parameters (AUC0-inf, AUC0-t, and Cmax) for Opicapone were natural log-transformed prior to analysis and evaluated separately using a linear mixed effects model with fixed effects terms for sequence, period, and treatment. […] CV %=SQRT[exp(s^2)−1]×100 and ‘s’ is the standard deviation of the log-transformed values.

[2] = biological target: P-gp/MDR1 efflux transporter (Homo sapiens, UniProt P08183); conditions: in vitro; cited from earlier work
Chain of P-gp/MDR1 efflux transporter (P08183 whole entry): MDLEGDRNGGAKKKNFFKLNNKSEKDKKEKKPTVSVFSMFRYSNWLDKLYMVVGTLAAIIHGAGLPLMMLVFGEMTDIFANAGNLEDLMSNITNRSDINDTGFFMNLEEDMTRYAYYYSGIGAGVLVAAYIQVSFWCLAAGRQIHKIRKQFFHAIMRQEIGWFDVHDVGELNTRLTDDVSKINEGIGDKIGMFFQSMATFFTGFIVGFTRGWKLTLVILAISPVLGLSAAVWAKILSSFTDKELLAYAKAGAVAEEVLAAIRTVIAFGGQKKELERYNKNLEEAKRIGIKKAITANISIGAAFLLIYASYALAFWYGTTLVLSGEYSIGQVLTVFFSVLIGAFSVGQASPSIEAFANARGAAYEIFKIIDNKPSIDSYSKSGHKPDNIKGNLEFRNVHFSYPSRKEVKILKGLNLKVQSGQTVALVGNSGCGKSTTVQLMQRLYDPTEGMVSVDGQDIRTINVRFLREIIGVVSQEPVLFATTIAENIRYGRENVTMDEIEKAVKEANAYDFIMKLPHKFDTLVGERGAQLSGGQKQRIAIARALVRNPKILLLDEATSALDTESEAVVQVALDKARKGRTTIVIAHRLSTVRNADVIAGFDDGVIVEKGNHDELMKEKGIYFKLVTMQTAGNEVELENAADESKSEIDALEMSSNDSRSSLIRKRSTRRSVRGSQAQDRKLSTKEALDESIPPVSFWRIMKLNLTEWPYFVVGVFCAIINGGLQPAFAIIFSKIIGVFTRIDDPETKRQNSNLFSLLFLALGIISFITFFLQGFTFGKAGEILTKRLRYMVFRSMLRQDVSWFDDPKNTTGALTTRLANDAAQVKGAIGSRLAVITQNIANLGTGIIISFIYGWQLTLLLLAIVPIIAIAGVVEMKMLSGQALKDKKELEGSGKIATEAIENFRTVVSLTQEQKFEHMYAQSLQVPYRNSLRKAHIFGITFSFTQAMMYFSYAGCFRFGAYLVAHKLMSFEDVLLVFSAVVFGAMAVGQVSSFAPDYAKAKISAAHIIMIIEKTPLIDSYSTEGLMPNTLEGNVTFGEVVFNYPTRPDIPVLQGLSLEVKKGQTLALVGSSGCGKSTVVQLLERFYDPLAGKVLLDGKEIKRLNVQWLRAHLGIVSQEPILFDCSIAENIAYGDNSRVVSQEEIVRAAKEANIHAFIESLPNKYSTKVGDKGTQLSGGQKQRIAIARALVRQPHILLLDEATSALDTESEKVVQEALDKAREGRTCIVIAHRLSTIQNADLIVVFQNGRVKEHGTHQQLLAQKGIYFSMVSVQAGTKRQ

Tmax ([1]; both sexes, human, oral, opicapone in plasma, healthy subjects, fasted, single dose OPC 50 mg, Median): 91.8 min | AUC(0-inf) ([1]; both sexes, human, oral, opicapone in plasma, healthy subjects, fasted, single dose OPC 50 mg, Geometric Mean (descriptive), read-out: AUC(0-inf), Geometric Mean): 2060 ng·h/mL | AUC(0-t) ([1]; both sexes, human, oral, opicapone in plasma, healthy subjects, fasted, single dose OPC 50 mg, Geometric Mean (descriptive), read-out: AUC(0-last), Geometric Mean): 1960 ng·h/mL | Cmax ([1]; both sexes, human, oral, opicapone in plasma, healthy subjects, fasted, single dose OPC 50 mg, Geometric Mean (descriptive), read-out: Cmax, Geometric Mean): 766 ng/mL | half-life ([1]; both sexes, human, oral, opicapone in plasma, healthy subjects, fasted, single dose OPC 50 mg, Geometric Mean (descriptive), read-out: t½, Geometric Mean (converted)): 53.2 min | AUC(0-inf) ([1]; both sexes, human, oral, opicapone in plasma, healthy subjects, fasted, single dose OPC 50 mg, Mean, read-out: AUC(0-inf), Mean): 2140 ng·h/mL | AUC(0-t) ([1]; both sexes, human, oral, opicapone in plasma, healthy subjects, fasted, single dose OPC 50 mg, Mean, read-out: AUC(0-last), Mean): 2040 ng·h/mL | Cmax ([1]; both sexes, human, oral, opicapone in plasma, healthy subjects, fasted, single dose OPC 50 mg, Mean, read-out: Cmax, Mean): 804 ng/mL | half-life ([1]; both sexes, human, oral, opicapone in plasma, healthy subjects, fasted, single dose OPC 50 mg, Mean, read-out: t½, Mean (converted)): 55.1 min | AUC(0-inf) ([1]; both sexes, human, oral, opicapone in plasma, healthy subjects, fasted, single dose OPC 50 mg, Median, read-out: AUC(0-inf), Median): 2020 ng·h/mL | AUC(0-t) ([1]; both sexes, human, oral, opicapone in plasma, healthy subjects, fasted, single dose OPC 50 mg, Median, read-out: AUC(0-last), Median): 1940 ng·h/mL | Cmax ([1]; both sexes, human, oral, opicapone in plasma, healthy subjects, fasted, single dose OPC 50 mg, Median, read-out: Cmax, Median): 782 ng/mL | half-life ([1]; both sexes, human, oral, opicapone in plasma, healthy subjects, fasted, single dose OPC 50 mg, Median, read-out: t½, Median (converted)): 55.9 min | AUC(0-inf) ([1]; both sexes, human, oral, opicapone, geometric mean from linear mixed effects model, OPC 50 mg, healthy subjects, read-out: AUC0-inf, GM): 2030 ng·h/mL | AUC(0-t) ([1]; both sexes, human, oral, opicapone, geometric mean from linear mixed effects model, OPC 50 mg, healthy subjects, read-out: AUC0-t, GM): 1960 ng·h/mL | Cmax ([1]; both sexes, human, oral, opicapone, geometric mean from linear mixed effects model, OPC 50 mg, healthy subjects, read-out: Cmax, GM): 766 ng/mL | decrease in opicapone exposure ([1]; in those also being administered quinidine): approximately 30% | Tlag, Median ([1]; opicapone in plasma, healthy subjects, fasted, single dose OPC 50 mg, Median): 0.00 h
Structure (SMILES): Cc1c(Cl)c(C)[n+]([O-])c(Cl)c1-c1noc(-c2cc(O)c(O)c([N+](=O)[O-])c2)n1 [OPC, 5-[3-(2,5-dichloro-4,6-dimethyl-1-oxy-pyridin-3-yl)-[1,2,4]oxadiazol-5-yl]-3-nitrobenzene-1,2-diol]
efflux transported by BCRP (BCRP): efflux transported | transported by OATP1B3 (OATP1B3): transported | transported by OATP1B1 (OATP1B1): not transported | efflux transported by P-gp (P-gp/MDR1 substrate) [2]: efflux transported

Structure (SMILES): Cc1c(Cl)c(C)[n+]([O-])c(Cl)c1-c1noc(-c2cc(OS(=O)(=O)O)c(O)c([N+](=O)[O-])c2)n1 [BIA 9-1103]
efflux transported by BCRP (BCRP): efflux transported | transported by OATP1B3 (OATP1B3): transported | transported by OATP1B1 (OATP1B1): transported | efflux transported by P-gp (P-gp/MDR1 substrate) [2]: not a substrate
